From patent US11953501B2, “Compositions and methods to detect gastrointestinal disease” (The Board of Supervisors of Louisiana State University and …, priority 2016, dated 2024)
Where two headings read alike, the source gives them in different places.

Target: T1, intestinal alkaline phosphatase (iAP) (Homo sapiens, UniProt P09923)
T1 construct: The supernatant contained proteins secreted in the gut lumen, on which our analysis is focused; from tissue; host or cells: stool supernatant (200 mg/mL slurry in water, centrifuged) from human preterm infants
T1 sequence (P09923 20-503 limits assumed): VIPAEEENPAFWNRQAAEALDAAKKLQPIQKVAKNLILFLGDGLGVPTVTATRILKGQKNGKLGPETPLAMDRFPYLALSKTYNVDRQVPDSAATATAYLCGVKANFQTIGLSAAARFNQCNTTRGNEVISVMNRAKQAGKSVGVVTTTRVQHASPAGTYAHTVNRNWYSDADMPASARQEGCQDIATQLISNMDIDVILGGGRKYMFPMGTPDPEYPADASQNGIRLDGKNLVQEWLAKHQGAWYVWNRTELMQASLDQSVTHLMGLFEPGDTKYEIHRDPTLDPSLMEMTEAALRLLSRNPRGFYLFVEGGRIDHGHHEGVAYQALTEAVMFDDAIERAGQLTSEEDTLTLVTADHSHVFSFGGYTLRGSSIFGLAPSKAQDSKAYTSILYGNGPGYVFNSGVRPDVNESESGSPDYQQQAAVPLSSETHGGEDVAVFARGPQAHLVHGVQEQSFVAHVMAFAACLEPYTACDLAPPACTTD
Test: Fecal iAP catalytic activity, 4-methylumbelliferyl phosphate (MUP) fluorometric assay with and without L-phenylalanine
Type: biochemical
Conditions: 10 mM L-Phe, spread is SD, read-out: inhibition of AP activity by L-Phe
Procedure: Fecal iAP catalytic activity: Alkaline phosphatase activity was measured with use of 4-methylumbelliferyl phosphate (MUP) as a fluorescent substrate (Abcam, ab83371) in the presence and absence of L-phenylalanine, an inhibitor of iAP. Relative fluorescence units (RFUs) at 360/440 nm were measured using a Spectra Max M2e spectrophotometer (Molecular Devices, Sunnyvale, CA). Ninety-six-well black optical bottom plates were used. Standards and negative controls were prepared for each plate run. Total AP activity was determined as: AP activity (mU/mL)=(B×dilution factor)/(T×V), in which B is nmol of product; V is volume of sample added to the well; T is reaction time; and U is the amount of enzyme causing hydrolysis of 1 μmol of MUP per minute at pH 10.0 and 25° C. […]
Fecal iAP Activity—Alkaline phosphatase activity was ascertained with the use of 4-methylumbelliferyl phosphate as a fluorescent substrate ab83371 (Abeam). […] Relative fluorescence units (RFUs) at 360/440 nm wavelengths were measured using a Spectra Max M2e spectrophotometer (Molecular Devices, Sunnyvale, CA). […] Reaction wells for samples, standards and negative background controls were prepared each time the assay was performed and total alkaline phosphatase activity was determined using: ALP activity (mU/ml)=(B/T)/V x dilution factor […]

## N[C@@H](Cc1ccccc1)C(=O)O [L-Phe, L-phenylalanine]
Stool samples from NEC patients
  inhibition at 10000 µM: 90%
Stool samples from control patients
  inhibition at 10000 µM: 91%
